For one molecule, MIC results are on record in patent US10041953B2, “Mass spectrometric determination of drug resistance” (priority 2013, dated 2018).

Converted amounts (≈) assume the structure as drawn.

Usually MIC stands for the smallest concentration in the dilution series that meets the test's criterion for growth inhibition. Read a high MIC as a need for much substance.

Format in all cases: cell-based
The subject of one assay is Salmonella strain 17109. The assay can be described thus: MIC for ciprofloxacin, Salmonella strain 17109. The settings on record: Salmonella strain 17109, one gyrase amino acid substitution.
Assay [1] relates to salmonella wild type (13471). Put plainly: MIC for ciprofloxacin, wild type (13471). The note with it: wild type gyrase.
Another assay concerns Salmonella strain 6836. Put plainly: MIC for ciprofloxacin, Salmonella strain 6836. The note with it: Salmonella strain 6836, double gyrase mutation.
In the next assay the test system is Salmonella strain 19222. The assay can be described thus: MIC for ciprofloxacin, Salmonella strain 19222. The settings on record: Salmonella strain 19222, one gyrase amino acid substitution.

With `O=C(O)c1cn(C2CC2)c2cc(N3CCNCC3)c(F)cc2c1=O` [ciprofloxacin], the MIC in the assay on Salmonella strain 17109 turned out to be 1 µg/mL (≈ 3.02 µM); in assay [1], 0.03 µg/mL (≈ 0.0905 µM); with Salmonella strain 6836, 32 µg/mL (≈ 96.6 µM); with Salmonella strain 19222 it was 1 µg/mL (≈ 3.02 µM).
